The text below walks through data of PubChem BioAssay AID330 (DTP/NCI, 2004).

Values joined by “and” are separate entries in the source; they are usually repeats but may differ in a detail not shown here. Equal entries are not always repeated. Inconclusive results and toxic doses are left out.

For the experiment, the system named is P388 leukemia ip, CD2F1 mice, survival T/C. Description: NCI In Vivo Anticancer Drug Screen. Data for tumor model P388 Leukemia (intraperitoneal) in CD2F1 (CDF1) mice. The conditions noted are these: endpoint: median survival time, higher = longer survival. A digest of the protocol: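 Mice carrying the transplanted tumor received test compound or vehicle. Survival was recorded in each group, and the value is the treated-group measurement divided by that of the vehicle-treated control group.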

Where [1] appears, read: dose: 50.0 mg/kg/injection, schedule: Q01DX009 (ip), vehicle: Klucel (hydroxypropylcellulose) (HPC).
Setting [2] is: dose: 100.0 mg/kg/injection, schedule: Q01DX009 (ip), vehicle: Klucel (hydroxypropylcellulose) (HPC).
[3] abbreviates: dose: 200.0 mg/kg/injection, schedule: Q01DX009 (ip), vehicle: Klucel (hydroxypropylcellulose) (HPC).
Where [4] appears, read: dose: 100.0 mg/kg/injection, schedule: Q04DX003 (ip), vehicle: Klucel (hydroxypropylcellulose) (HPC).
[5] abbreviates: dose: 200.0 mg/kg/injection, schedule: Q04DX003 (ip), vehicle: Klucel (hydroxypropylcellulose) (HPC).
Setting [6] is: dose: 400.0 mg/kg/injection, schedule: Q04DX003 (ip), vehicle: Klucel (hydroxypropylcellulose) (HPC).
Where [7] appears, read: dose: 12.5 mg/kg/injection, schedule: Q01DX005 (ip), vehicle: Klucel (hydroxypropylcellulose) (HPC).
[8] abbreviates: dose: 25.0 mg/kg/injection, schedule: Q01DX005 (ip), vehicle: Klucel (hydroxypropylcellulose) (HPC).
Setting [9] is: dose: 50.0 mg/kg/injection, schedule: Q01DX005 (ip), vehicle: Klucel (hydroxypropylcellulose) (HPC).
[10] abbreviates: dose: 100.0 mg/kg/injection, schedule: Q01DX005 (ip), vehicle: Klucel (hydroxypropylcellulose) (HPC).
[11] abbreviates: dose: 200.0 mg/kg/injection, schedule: Q01DX005 (ip), vehicle: Klucel (hydroxypropylcellulose) (HPC).
Where [12] appears, read: dose: 50.0 mg/kg/injection, schedule: Q01DX009 (ip), vehicle: saline.
[13] abbreviates: dose: 100.0 mg/kg/injection, schedule: Q01DX009 (ip), vehicle: saline with Tween-80.
Where [14] appears, read: dose: 200.0 mg/kg/injection, schedule: Q01DX009 (ip), vehicle: saline with Tween-80.
Where [15] appears, read: dose: 50.0 mg/kg/injection, schedule: Q01DX009 (ip), vehicle: saline with Tween-80.

Consider `CC[C@]12CN3CCc4c([nH]c5ccccc45)[C@@](C(=O)OC)(c4cc5c(cc4OC)N(C=O)[C@H]4[C@@](O)(C(=O)OC)[C@H](OC(C)=O)[C@]6(CC)C=CCN7CC[C@]54[C@@H]76)C[C@H](C3)[C@H]1O2`, for which the T/C reads like this: (dose: 1.0 mg/kg/injection, schedule: Q01DX009 (ip), vehicle: saline) 123 % of control; (dose: 4.0 mg/kg/injection, schedule: Q01DX009 (ip), vehicle: saline) 166 % of control; (dose: 6.0 mg/kg/injection, schedule: Q01DX009 (ip), vehicle: saline) 175 % of control.
Regarding `O=c1oc2nc3ccc(Cl)cc3c(=O)n2c2ccc(Cl)cc12`, the T/C under setting [1] was 108 % of control, the T/C under setting [2] is 118 % of control and the T/C under setting [3] is 104 % of control.
On to `CN(C)c1ccc(C(=O)C2CCCC(C)(C)C2)cc1` (configuration not stated), for which the T/C under setting [4] is 98 % of control, the T/C under setting [5] was 99 % of control and the T/C under setting [6] is 91 % of control.
With `CS/C(=N\N=C(/C)c1ccccn1)SS/C(=N/N=C(\C)c1ccccn1)SC`, the T/C runs as follows: (dose: 12.5 mg/kg/injection, schedule: Q01DX005 (ip), vehicle: saline + Tween-80 + alcohol) 98 % of control; (dose: 25.0 mg/kg/injection, schedule: Q01DX005 (ip), vehicle: saline + Tween-80 + alcohol) 97 % of control; (dose: 50.0 mg/kg/injection, schedule: Q01DX005 (ip), vehicle: saline + Tween-80 + alcohol) 101 % of control and 103 % of control; (dose: 100.0 mg/kg/injection, schedule: Q01DX005 (ip), vehicle: saline + Tween-80 + alcohol) 111 % of control.
Regarding `Cc1cc(C)n(C2=NC3(C)NC(=O)NC3(C)N2)n1` (configuration not stated), the T/C by setting is: (dose: 50.0 mg/kg/injection, schedule: Q04DX002 (ip), vehicle: saline with Tween-80) 98 % of control; (dose: 100.0 mg/kg/injection, schedule: Q04DX002 (ip), vehicle: saline with Tween-80) 94 % of control; (dose: 200.0 mg/kg/injection, schedule: Q04DX002 (ip), vehicle: saline with Tween-80) 98 % of control.
With `C1=CCC(CC[Si]23OCCN(CCO2)CCO3)CC1` (configuration not stated), the T/C is, setting by setting: under setting [7], 103 % of control; under setting [8], 96 % of control; under setting [9], 101 % of control and 96 % of control.
For the compound `CCCCCCCCCCCCCCCCOc1ccc(S(=O)(=O)c2ccccc2)cc1[N+](=O)[O-]`, the T/C was 100 % of control (dose: 25.0 mg/kg/injection, schedule: Q04DX003 (ip), vehicle: saline sonified); 100 % of control (dose: 50.0 mg/kg/injection, schedule: Q04DX003 (ip), vehicle: saline sonified); 90 % of control (dose: 100.0 mg/kg/injection, schedule: Q04DX003 (ip), vehicle: saline sonified).
As for `COc1cc(/C=N/NC(=O)C(=O)N/N=C/c2cc(OC)c(OC)c(OC)c2)cc(OC)c1OC`, the T/C is 89 % of control under setting [1], 95 % of control under setting [2] and 93 % of control under setting [3].
Take `CCCSc1nc2ccc(N=Cc3ccccc3O)cc2s1`: the T/C reads like this: under setting [1], 97 % of control; under setting [2], 90 % of control; under setting [3], 90 % of control.
Consider `C(=N\c1nccs1)/c1ccc[nH]1`, for which the T/C is 99 % of control under setting [9], 96 % of control under setting [10] and 100 % of control under setting [11].
Consider `CN1CCCC1=O`, for which, under setting [12], the T/C was 95 % of control.
`O=C(CCl)C(c1ccc([N+](=O)[O-])cc1)c1ccc([N+](=O)[O-])cc1`: the T/C was 100 % of control under setting [13]; 95 % of control under setting [14]; 118 % of control (dose: 400.0 mg/kg/injection, schedule: Q01DX009 (ip), vehicle: saline with Tween-80).
Take `CN1C(=O)Nc2ccc(Cl)cc2C1(O)c1ccccc1` (configuration not stated): the T/C by setting is: (dose: 25.0 mg/kg/injection, schedule: Q01DX009 (ip), vehicle: saline with Tween-80) 90 % of control; under setting [15], 86 % of control; under setting [13], 92 % of control; under setting [14], 91 % of control.
Turning to `O=C1c2c(Cl)ccc([N+](=O)[O-])c2C(=O)c2c(Cl)ccc([N+](=O)[O-])c21`, the T/C reads like this: under setting [7], 106 % of control; under setting [8], 104 % of control; under setting [9], 99 % of control and 104 % of control; under setting [10], 94 % of control; under setting [11], 94 % of control.
`O/N=C1\CCC2CCCCC2C1` (configuration not stated): the T/C reads like this: under setting [12], 103 % of control; (dose: 100.0 mg/kg/injection, schedule: Q01DX009 (ip), vehicle: saline) 103 % of control; (dose: 200.0 mg/kg/injection, schedule: Q01DX009 (ip), vehicle: saline) 104 % of control.
For `CCN(CC)CCOC(=O)C(C(=O)OCCN(CC)CC)C1CCCC1`, the T/C by setting is: (dose: 50.0 mg/kg/injection, schedule: Q01DX005 (ip), vehicle: saline) 94 % of control; (dose: 100.0 mg/kg/injection, schedule: Q01DX005 (ip), vehicle: saline) 92 % of control; (dose: 200.0 mg/kg/injection, schedule: Q01DX005 (ip), vehicle: saline) 100 % of control.
For the compound `O=[N+]([O-])c1ccc(O)cc1C=NCCSc1ccc(Cl)cc1`, the T/C under setting [15] is 100 % of control, the T/C under setting [13] is 100 % of control and the T/C under setting [14] was 103 % of control.
`[O]=[Mo](=[O])=[O]`: the T/C reads like this: (dose: 60.0 mg/kg/injection, schedule: Q01DX005 (ip), vehicle: saline) 100 % of control; (dose: 120.0 mg/kg/injection, schedule: Q01DX005 (ip), vehicle: saline) 110 % of control; (dose: 240.0 mg/kg/injection, schedule: Q01DX005 (ip), vehicle: saline) 115 % of control.
On to `CC1(C)CC(NC(=O)C(C)(C)Oc2ccc(Cl)cc2)CC(C)(C)N1`, for which the T/C is, setting by setting: (dose: 50.0 mg/kg/injection, schedule: Q01DX005 (ip), vehicle: saline with Tween-80) 107 % of control; (dose: 100.0 mg/kg/injection, schedule: Q01DX005 (ip), vehicle: saline with Tween-80) 100 % of control; (dose: 200.0 mg/kg/injection, schedule: Q01DX005 (ip), vehicle: saline with Tween-80) 98 % of control.
Consider `O=c1cc2[nH]c3ccccc3c(=O)n2[nH]1`, for which the T/C is 98 % of control under setting [9], 97 % of control under setting [10] and 95 % of control under setting [11].
On to `O=C(O)C1=Cc2ccccc2OC1`, for which the T/C under setting [4] is 101 % of control, the T/C under setting [5] is 107 % of control and the T/C under setting [6] is 105 % of control.
`COC(=O)C1C2C1C1C=CC2n2c(=O)n(-c3ccccc3)c(=O)n21` (configuration not stated): the T/C under setting [9] was 97 % of control, the T/C under setting [10] was 97 % of control and the T/C under setting [11] is 110 % of control.
As for `OC(CCl)Cc1ccccc1` (configuration not stated), the T/C (dose: 25.0 mg/kg/injection, schedule: Q04DX003 (ip), vehicle: saline with Tween-80) is 104 % of control; the T/C (dose: 50.0 mg/kg/injection, schedule: Q04DX003 (ip), vehicle: saline with Tween-80) is 100 % of control; the T/C (dose: 100.0 mg/kg/injection, schedule: Q04DX003 (ip), vehicle: saline with Tween-80) was 100 % of control.
Take `N#CC1CC2OC1CC(=O)C2(O)c1occc(=O)c1O` (configuration not stated): the T/C under setting [15] was 100 % of control, the T/C under setting [13] is 107 % of control and the T/C under setting [14] was 105 % of control.
Regarding `CS(=O)(=O)c1ccc(C[N+]23CN4CN(CN(C4)C2)C3)cc1`, the T/C runs as follows: (dose: 60.0 mg/kg/injection, schedule: Q01DX005 (ip), vehicle: Klucel (hydroxypropylcellulose) (HPC)) 98 % of control; (dose: 120.0 mg/kg/injection, schedule: Q01DX005 (ip), vehicle: Klucel (hydroxypropylcellulose) (HPC)) 99 % of control; (dose: 240.0 mg/kg/injection, schedule: Q01DX005 (ip), vehicle: Klucel (hydroxypropylcellulose) (HPC)) 98 % of control.
